# Assay results published in US8354265B2, “Chemicals promoting the growth of N-acylhomoserine lactone-degrading bacteria” (Centre National de la Recherche Scientifique, priority 2007, dated 2013).
# Entries after “also recorded” stand apart in the source; their conditions may differ.
# Legend:
# [1] = tested on: bacterial consortia originating from rhizospheric soil; test: C6-HSL inactivation by bacterial consortia enriched from rhizospheric soil; format: cell-based
# [2] = tested on: bacteria recovered from the consortia; test: NAHL production and inactivation by isolates recovered from the consortia, with rrs identification; format: cell-based
# [3] = tested on: Erwinia carotovora subsp. atroseptica 6276; test: Maceration assay on potato tubers (biocontrol activity of consortia); format: in vivo; details: potato tubers infected with mix of Erwinia carotovora 6276 and consortia
# Excerpt: FIG. 6: Maceration assay on potato tubers.
# The Mannitol-, 6CL-, GCL-, and HTN-consortia were compared for their capacity to inactivated OC8-HSL, the major NAHL produced by the plant pathogen Erwinia carotovora subsp. atroseptica 6276, as well as for their biocontrol activity against this pathogen in potato maceration assay.
# [4] = tested on: NAHL-degrading rhizobacteria of potato rhizosphere; test: Preliminary experiment in planted hydroponic batches: level and diversity of NAHL-degrading rhizobacteria (Table 1); format: in vivo, Solanum tuberosum var. Allians
# Procedure: (§1) The non sterile batches (40×60×8 cm) contained 13 L of the nutritive solution Hydrobloom (Cellmax, UK) with Nitrogen at 0.80 g/L, Phosphore at 0.56 g/L and Potassium at 1.48 g/L as major components. The solution was diluted from a concentrated stock solution (×250) with non sterile water from the public water system. One hundred plants of Solanum tuberosum var. Allians, which were recovered from cultures performed under sterile conditions, were placed into holes (3 cm space to each other) of batch covers. Planted batches were placed in the greenhouse (Comité Nord Plants de Pomme de Terre, Bretteville-du-Grand-Caux) under natural light at 10-15° C. (night) and 25-30° C. (day). […] An untreated batch was used as a control. One gram of roots (fresh weight) was resuspended in 10 mL of sterile MgSO4 10 mM, diluted and spread on TSA and King B plates to isolate total cultivable bacteria and fluorescent Pseudomonas, respectively. Three samples were analyzed from each batch at each time D0, D14 and D28; from each sample, thirty isolates from TSA plates and thirty fluorescent isolates from King B plates were individually tested from production and inactivation of NAHL signal.
# (§2) Bacterial isolates grown in 96-microwell plates were individually tested from production of NAHL with the A. tumefaciens biosensor NT1 (pZNLR4) and the inactivation of the C6-HSL signal, as described previously (d'Angelo-Picard et al. 2004).
# At least 400 bp were submitted to the NCBI database.
# [5] = tested on: bacterial isolates from untreated and GCL-treated batches; test: Assimilation of GCL as sole carbon source versus NAHL inactivation by isolates (FIG. 10); format: cell-based; details: untreated and GCL-treated (0.1 and 0.4 mL/L) batches; D14 and D28
# Procedure: Each disk represents 90 isolates from untreated or GCL-treated (0.1 and 0.4 mL/L) batches 14 days (D14) and 28 days (D28) after the beginning of the treatment.
# as §2
# Results were cross-examined with respect to the ability of each strain to inactivate (or not) NAHL signal.
# [6] = tested on: NAHL-degrading rhizobacteria; test: Diversity of NAHL-degrading rhizobacteria after 6CL and GCL treatments, rrs sequencing (Table 2); format: in vivo, Solanum tuberosum
# Procedure: as §1
# The 5′-end of the rrs gene was amplified with primers pA (5′-[…]) (SEQ ID NO:1) and 518r (5′-[…]) (SEQ ID NO:2), and sequenced with pA primer by GenomeExpress (Meylan, France). At least 400 bp were submitted to the NCBI database. Although some sequence comparisons authorized identification of isolates at the species level, only the genus level was retained in this study for homogeneity.
# The isolates were identified by rrs-sequencing (Table 2). At D0, most of the NAHL-degrading isolates were identified as Delftia. However, at D14 and D28, the Agrobacterium isolates dominated in untreated batches, while they were not detected in the treated batches. In those, the more frequently counted bacteria were Delftia and Rhodococcus.
# [7] = tested on: acyl-HSL degrading strains of potato rhizosphere; test: GCL treatment of potato plants in long-term hydroponic culture (FIG. 12); format: in vivo, Solanum tuberosum; parameters: dose or concentration left out as unconfirmed; details: 0.4 at D0, D18 and D49; at D28, D49 and D56
# Procedure: The plants were cultivated in hydroponic batches from D0 to D17, then transferred into hydroponic system allowing the long term culture until tuberisation. At each time, three samples (D0 and D7) and four samples (D28, D49 and D56) were analyzed: the number of CFU/g of roots was estimated (B), as well as the percentage of acyl-HSL-producing (C) and acyl-HSL degrading strains. Different letters indicate a significative difference (Student's t-test; α=0.05) between the two conditions, untreated and GCL-treated.
# The plants were cultivated in hydroponic batches from D0 to D17, then transferred into hydroponic system allowing the long term culture until tuberisation.
# [8] = tested on: NAHL-degrading rhizobacteria; test: Diversity of NAHL-degrading rhizobacteria after 6CL and GCL treatments, rrs sequencing (Table 2); format: in vivo, Solanum tuberosum; details: isolates of treated batches
compound,measurement,setting,value
"CCC1CCC(=O)O1 (stereo not drawn) [GCL, gamma-caprolactone]",activity of consortia towards C6-HSL (ranking),[1],the most active
same,NAHL-inactivating bacteria recovered from consortia,[2],recovered
same,NAHL-degrading isolates related to Chryseobacterium,[2]; 6CL and GCL consortia together,10%
same,NAHL-degrading isolates related to Delftia,[2]; 6CL and GCL consortia together,80 % of the identified strains
same,NAHL-degrading isolates related to Ralstonia,[2]; 6CL and GCL consortia together,3%
same,NAHL-degrading isolates related to Rhodococcus,[2]; 6CL and GCL consortia together,7%
same,NAHL-producing bacteria among isolates of the consortia,[2]; 280 isolates from 280 independent enrichments,none
same,biocontrol activity of the consortia against E. carotovora 6276,[3],biocontrol activity was observed; also recorded: showed biocontrol activity
same,Log CFU/gram of root (fresh weight),[4]; D0 (before treatment),8.0 ± 7.5 Log CFU/gram of root (fresh we
same,NAHL degraders (%),[4]; D0 (before treatment),16.7 ± 0.1 %
same,NAHL producers (%),[4]; D0 (before treatment),6.7 ± 1.0%
same,rrs-identified NAHL-degraders: Delftia,"[4]; D0, of 8 isolates",3
same,rrs-identified NAHL-degraders: Pseudomonas,"[4]; D0, of 8 isolates",2
same,rrs-identified NAHL-degraders: Rhodococcus,"[4]; D0, of 8 isolates",3
same,Log CFU/gram of root (fresh weight),"[4]; D28, 0.1 mL/L",10.5 ± 9.8 Log CFU/gram of root (fresh we
same,NAHL degraders (%),"[4]; D28, 0.1 mL/L",33.3 ± 4.0 %
same,NAHL producers (%),"[4]; D28, 0.1 mL/L",11.1 ± 1.5%
same,identified genera of NAHL-degrading bacteria,"[4]; D28, 0.1 mL/L",3
same,rrs-identified NAHL-degraders: Bacillus,"[4]; D28, 0.1 mL/L, of 8 isolates",1
same,rrs-identified NAHL-degraders: Delftia,"[4]; D28, 0.1 mL/L, of 8 isolates",2
same,rrs-identified NAHL-degraders: Rhodococcus,"[4]; D28, 0.1 mL/L, of 8 isolates",5
same,occurrence of bacteria both assimilating GCL and inactivating NAHL,[5],only detected in the treated batches
same,rrs-identified NAHL-degraders: Delftia,"[6]; D14 and D28, 0.1 mL/L",16
same,rrs-identified NAHL-degraders: Others,"[6]; D14 and D28, 0.1 mL/L",2
same,rrs-identified NAHL-degraders: Pseudomonas,"[6]; D14 and D28, 0.1 mL/L",1
same,rrs-identified NAHL-degraders: Rhizobium,"[6]; D14 and D28, 0.1 mL/L",1
same,rrs-identified NAHL-degraders: Rhodococcus,"[6]; D14 and D28, 0.1 mL/L",60
same,rrs-identified NAHL-degraders: Delftia,"[6]; D14 and D28, 0.4 mL/L",9
same,rrs-identified NAHL-degraders: Pseudomonas,"[6]; D14 and D28, 0.4 mL/L",1
same,rrs-identified NAHL-degraders: Rhodococcus,"[6]; D14 and D28, 0.4 mL/L",96
same,percentage of A. tumefaciens isolates among the NAHL-degrading rhizobacteria,[6]; after GCL-treatments,decrease
same,effect on the percentage of acyl-HSL degraders,[7],clear effect
same,growth of Delftia and Rhodococcus isolates on the compound as a sole carbon source,[8],grew on GCL as a sole carbon source
